Key:
[1] = tested on: Mouse-derived myoblast line C2C12 cell; assay: Cell differentiation promoting activity in myoblast (creatine kinase activity); format: cell-based; details: 48 h, 1 μM compound, 2 days in differentiation medium, CK activity without compound = 100%, read-out: creatinine kinase activating action (%)
Experimental: • (1) Mouse-derived myoblast line C2C12 cell (Dainippon Pharmaceutical Co., Ltd.) was subcultured in a high glucose Eagle's modified Dulbecco's medium (GIBCO) containing 10% calf fetal bovine serum (GIBCO), 100 unit/mL penicillin and 100 μg/mL streptomycin (hereinafter to be referred to as a growth medium), plated at 5000 cells/cm^2 and cultured at 37° C., under 5% CO2. • (2) When the cells reached subconfluence, the medium was exchanged with a high glucose Eagle's modified Dulbecco's medium (GIBCO) containing 2% horse serum (GIBCO) and penicillin, streptomycin and a test compound (hereinafter to be referred to as a differentiation medium), and the cells were cultured for 2 days. To the control group was added DMSO solution instead of the test compound. • (3) The cells were washed with PBS, 0.5% NP-40 solution was added thereto, and the cells were lysed by freeze-thawing. The cell extract was centrifuged, and the creatine kinase activity in the supernatant was measured as an index of muscle differentiation. The creatine kinase activity was measured using CPKII Test Wako (Wako Pure Chemical Industries, Ltd.) according to the manual of the kit. The tests using the compounds of Example 7 to Example 14 were corrected based on the total protein amount measured using CA Protein Assay Kit (Thermo Scientific).
The numerical values in Table 3 show CK activity of the compound addition group with the CK activity without addition of the compound as 100%, and 1 μM of the compound was added for the measurement.

[2] = tested on: differentiated C2C12 muscle cell; assay: Sugar metabolism promoting activity in muscle cell (lactic acid production); format: cell-based, mouse; details: C2C12 myotube, 1 μM compound, 2 days; lactic acid concentration without compound = 100%
Experimental: • (1) In the same manner as in Experimental Example 1, C2C12 cell was cultured in a growth medium. When the cells reached subconfluence, the medium was exchanged with a differentiation medium, and the cells were cultured for 3 to 4 days while exchanging the medium every 2 or 3 days until the cells differentiated to form a myotube. • (2) After confirmation of myotube formation under a microscope, the compound (1 μM) was added to a differentiation medium and cultured for 2 days. The cells were washed with Krebs-Ringer HEPES phosphate buffer (10 mM HEPES, pH 7.4, 131 mM NaCl, 4.7 mM KCl, 2.5 mM CaCl2-2H2O, 1.2 mM MgSO4-7H2O, 1.2 mM KH2PO4), the medium was exchanged with Krebs-Ringer HEPES phosphate buffer containing 5 mM glucose, 0.2% fatty acid-free bovine serum albumin, and the cells were cultured at 37° C. for 4 hr. • (3) The lactic acid concentration of the culture supernatant was measured using Detarminer LA kit (Kyowa Medex Co., Ltd.).
The numerical values in Table 4 show the lactic acid concentration of the compound addition group with the lactic acid concentration without addition of the compound as 100%.

[3] = Anti-obesity action in high-fat diet-loaded mouse; format: in vivo, male C57BL/6J mouse; details: for plasma total cholesterol concentration (mg/dL) before administration: before administration (baseline); for plasma total cholesterol concentration (mg/dL) before administration / plasma total cholesterol concentration (mg/dL) after administration for 4 weeks / body weight: mean ± SD, n=6; for body weight: once a day for 4 weeks, administration completion day
Experimental: As male C57BL/6J mouse (CLEA Japan, Inc.), mice fed with a high-fat diet (45 kcal % fat, D12451, research diet) for 40 weeks from 5 weeks old were used. After acclimation bred for 3 weeks, the body weight, ingestion amount, body fat percentage, plasma triglyceride, insulin and leptin concentration were measured, and the mice were divided into 4 groups at 6 per group without difference between them. Plasma total cholesterol concentration was measured using Hitachi automatic analyzer 7180. The compound of Example 1 was suspended in aqueous methylcellulose solution, and the suspension was orally administered repeatedly to 3 groups of the […] divided into 4 groups at 3 mg/kg, 10 mg/kg or 30 mg/kg once a day for 4 weeks. A 0.5% aqueous methylcellulose solution was orally administered similarly to the remaining one group, and the group was used as a control group. On the administration completion day, the body weight and plasma total cholesterol concentration were measured. The numerical values in Table 5 show mean±standard deviation at n=6 (n is the number of mice).

NF-kB = NF-kB activation suppressive action in muscle cell (luciferase reporter, TNF-α induced); format: cell-based, mouse; details: TNF-α 10 ng/mL, activity without TNF-α = 1, n=8
Experimental: • (1) C2C12 cells introduced with NF-kB reporter plasmid (C2C12/NF-kB-luc, Panomics) was plated at 20000 cells/cm^2, 100 μg/ml hygromycin was added thereto, and the cells were cultured in a growth medium in the same manner as in Example 1. • (2) The cells were cultured in a differentiation medium containing the compound of Example 1, Example 8, Example 9, Example 10 or Example 11 for 1 hr, TNF-α was added thereto such that the concentration is 10 ng/mL, and the cells were cultured for 4 hr. • (3) The luciferase activity in the medium was measured using a Stedy-Glo luciferase assay system (Promega). The NF-kB activity was evaluated by measuring the luciferase activity.
The data in Table 6 to Table 10 show mean±standard deviation at n=8 (n is the number of samples).

[4] = Anti-diabetes action in KKA^y mouse (glycohemoglobin); format: in vivo, female KKA^y mouse; details: 2 weeks, variation from value before administration, n=6
Experimental: Female KKA^y mice (12-13 week-old, CLEA Japan, Inc.) were bred allowing free ingestion of both feed and water. The mice were acclimation bred with powder CE-2 (CLEA Japan, Inc.) from 2 weeks before administration of the test compound. The body weight, blood glycohemoglobin % (GHb %) value, plasma glucose, triglyceride and total cholesterol concentration were measured, and the mice were divided into 3 groups or 5 groups (6 mice/group) such that those measurement values are uniform at the start of the administration. The compound was administered by mixing (0.01-0.03%) in the feed for 2 weeks. GHb % was measured on the last day. GHb % was measured using Tosoh Corporation automatic glycohemoglobin analyzer (HLC-723GHbV Alc2.2). The numerical values in Table 11 show the variation from the value before administration to the measured value after administration in mean±standard deviation at n=6 (n is the number of mice).

3T3-L1 cells = assay: Adipocyte differentiation suppressive action (fat droplet quantification); format: cell-based; details: for lipid accumulation amount in the cell in fat differentiation, result in words: 1 μM; for lipid accumulation (%): 1 μM compound, 6 days, without compound = 100%, n=2
Experimental: 3T3-L1 cells (ATCC) were cultured in a growth medium until confluence. 1 μM dexamethasone, 0.5 mM 3-isobutyl-1-methylxanthine and 5 μg/mL insulin were added to the medium, and the cells were cultured for 3 days. The medium was exchanged with a growth medium containing 4 μg/mL insulin and the cells were cultured for 3 more days. When the compound (1 μM) was to be added, it was added after the cells reached confluence, and the cells were cultured for 6 days. After completion of the culture period, the fat droplet formed was quantified using Adipogenesis Assay Kit (CHEMICON). The numerical values in Table 12 show the relative value when without addition of the compound as 100% (n is the number of samples).

For `O=C(/C=C/c1cnccc1-c1ccc(F)cc1)Nc1ccc(CCc2nnco2)cc1` [Example 1, (2E)-3-[4-(4-fluorophenyl)pyridin-3-yl]-N-{4-[2-(1,3,4-oxadiazol-2-yl)ethyl]phenyl}prop-2-enamide], the activity at 1 µM [1] was 196%, the “lactic acid production promoting action (%)” value [2] was 226.1% and the “plasma total cholesterol concentration (mg/dL) before administration” value ([3]; 3 mg/kg/day group) was 265.5 ± 29.7 mg/dL. For the same compound, the “plasma total cholesterol concentration (mg/dL) after administration for 4 weeks” value ([3]; 3 mg/kg/day oral) was 225.9 ± 27.7 mg/dL, the “body weight” value ([3]; 3 mg/kg/day oral) was 52.5 ± 2.5 g and the “plasma total cholesterol concentration (mg/dL) before administration” value ([3]; 10 mg/kg/day group) was 270.9 ± 24.5 mg/dL. The “plasma total cholesterol concentration (mg/dL) after administration for 4 weeks” value ([3]; 10 mg/kg/day oral) was 192.8 ± 27.6 mg/dL, the “body weight” value ([3]; 10 mg/kg/day oral) was 49.0 ± 3.2 g and the “plasma total cholesterol concentration (mg/dL) before administration” value ([3]; 30 mg/kg/day group) was 275.9 ± 18.2 mg/dL. For the same compound, the “plasma total cholesterol concentration (mg/dL) after administration for 4 weeks” value ([3]; 30 mg/kg/day oral) was 161.7 ± 16.9 mg/dL, the “body weight” value ([3]; 30 mg/kg/day oral) was 44.9 ± 3.1 g and the “body weight decreasing action” value ([3]; administration at 10 mg/kg or above, result in words) was “showed a body weight decreasing action”. The “plasma total cholesterol concentration, result in words” value ([3]; high-fat diet-loaded mouse, 4 weeks oral) was “decreased total cholesterol concentration”, the “NF-κB activity (multiple)” value (NF-kB; 0.001 μM compound) was 13.2 multiple and the “NF-κB activity (multiple)” value (NF-kB; 0.003 μM compound) was 13.4 multiple. For the same compound, the “NF-κB activity (multiple)” value (NF-kB; 0.01 μM compound) was 13.7 multiple, the “NF-κB activity (multiple)” value (NF-kB; 0.03 μM compound) was 12.5 multiple and the “NF-κB activity (multiple)” value (NF-kB; 0.1 μM compound) was 10.7 multiple. The “NF-κB activity (multiple)” value (NF-kB; 0.3 μM compound) was 9.4 multiple, the “NF-κB activity (multiple)” value (NF-kB; 1 μM compound) was 9.3 multiple and the “NF-κB activity (multiple)” value (NF-kB; 3 μM compound) was 8.3 multiple. For the same compound, the “NF-κB activity (multiple)” value (NF-kB; 10 μM compound) was 9.0 multiple, the “GHb change (%)” value ([4]; 0.01% mixed with feed) was −0.4% and the “lipid accumulation amount in the cell in fat differentiation, result in words” value (3T3-L1 cells) was “decrease the lipid accumulation amount in the cell”. The “lipid accumulation (%)” value (3T3-L1 cells) was 53%.
With `COc1ccc(-c2ccncc2/C=C/C(=O)Nc2ccc(CCc3nnco3)cc2)cc1` [Example 2, (2E)-3-[4-(4-methoxyphenyl)pyridin-3-yl]-N-{4-[2-(1,3,4-oxadiazol-2-yl)ethyl]phenyl}prop-2-enamide] the activity at 1 µM [1] was 211%, the “lactic acid production promoting action (%)” value [2] was 168.3% and the “GHb change (%)” value ([4]; 0.02% mixed with feed) was −1%. The “lipid accumulation amount in the cell in fat differentiation, result in words” value (3T3-L1 cells) was “decrease the lipid accumulation amount in the cell” and the “lipid accumulation (%)” value (3T3-L1 cells) was 45%.
In the case of `Cc1nnc(CCc2ccc(NC(=O)/C=C/c3cnccc3-c3ccc(F)cc3)cc2)o1` [Example 3, (2E)-3-[4-(4-fluorophenyl)pyridin-3-yl]-N-{4-[2-(5-methyl-1,3,4-oxadiazol-2-yl)ethyl]phenyl}prop-2-enamide], the activity at 1 µM [1] is reported as 249%, the “lactic acid production promoting action (%)” value [2] is reported as 175.4% and the “GHb change (%)” value ([4]; 0.03% mixed with feed) is reported as −0.3%.
In the case of `O=C(/C=C/c1cncnc1-c1ccc(F)cc1)Nc1ccc(CCc2nnco2)cc1` [Example 4, (2E)-3-[4-(4-fluorophenyl)pyrimidin-5-yl]-N-{4-[2-(1,3,4-oxadiazol-2-yl)ethyl]phenyl}prop-2-enamide], the activity at 1 µM [1] is reported as 249%, the “lactic acid production promoting action (%)” value [2] is reported as 222.9% and the “GHb change (%)” value ([4]; 0.03% mixed with feed) is reported as −0.7%.
With `COc1ccc(-c2ncncc2/C=C/C(=O)Nc2ccc(CCc3nnco3)cc2)cc1` [Example 5, (2E)-3-[4-(4-methoxyphenyl)pyrimidin-5-yl]-N-{4-[2-(1,3,4-oxadiazol-2-yl)ethyl]phenyl}prop-2-enamide] the activity at 1 µM [1] was 290%, the “lactic acid production promoting action (%)” value [2] was 233.3% and the “GHb change (%)” value ([4]; 0.03% mixed with feed) was −0.3%.
In the case of `O=C(/C=C/c1cnccc1-c1ccc(F)cc1)Nc1ccc(CN2CCOCC2)cc1` [Example 6, (2E)-3-[4-(4-fluorophenyl)pyridin-3-yl]-N-[4-(morpholin-4-ylmethyl)phenyl]prop-2-enamide], the activity at 1 µM [1] is reported as 299%, the “lactic acid production promoting action (%)” value [2] is reported as 216.7% and the “GHb change (%)” value ([4]; 0.02% mixed with feed) is reported as −1.2%.

Source: patent US8937055B2, “Heterocyclic ring compound having muscle cell or adipocyte differentiation regulating action” (Takeda Pharmaceutical Company Limited, priority 2010, dated 2015)
